From patent publication US20230105667A1, “MESENCHYMAL STROMAL CELLS AND EXTRACELLULAR VESICLES FOR TREATING VIRAL INFECTIONS, INFLAMMATION, AND TISSUE FIBROSIS” (EXOSTEM BIOTEC LTD., priority 2020, published 2023)

Tested on: Immortalized human bronchial epithelial (HBE) cells
Type: cell-based
Conditions: HBE cells with S1 peptide; EVs, drugs alone or combined

SMILES | reduction in inflammation (TNFα expression)
C=C(C)[C@@H]1CCC(C)=C[C@H]1c1c(O)cc(CCCCC)cc1O [CBD, cannabidiol] | modest reduction in inflammation
CN(C)C(=N)N=C(N)N [metformin] | modest reduction in inflammation
